Experimental findings from patent publication US5980913A, “Peptides having immunomodulatory activity” (Biochem Pharma, Inc., priority 1994, dated 1999) are described below.

In one assay the test system is T cells. Description: Activation of T cells by mitogenic proliferation (ConA, PHA). It counts as cell-based, C57BL/6 mice. The text has this: (§1) c) Activation of T or B cells by Mitogenic Proliferation
(§2) A mitogenic lectin (mitogen) is a glycoprotein which binds and cross-links specific cells surface carbohydrate determinants, and will polyclonally stimulate lymphoid cells. Lymphocyte activation by either antigens or mitogens results in intracellular changes and the subsequent development into a lymphoblast. Mitogenic stimulation of lymphocytes in vitro is believed to mimic the series of events which occur in vivo following their stimulation by specific antigens. PHA and ConA; PWM and LPS mitogens can be used as a measurement of T cell and B cell activity, respectively. Briefly, the spleen mononuclear leukocytes from C57BL/6 mice are incubated in the presence or absence of mitogens with or without candidate drugs. After 72 hours or 5 days, ^3 H-thymidine incorporation is recorded as an indication of cell proliferation.
(§3) Lymphocytes were isolated from mice spleen or human blood in accordance to methods well known in the art. 100 μl of cell suspension of 2×10^6 cells/ml was added per well (2x10^5 cells/well) and incubated in the presence of lectin at the following concentrations:
PHA=0.01% to 0.001% final concentration
(§4) Cells were incubated for 3 days with PHA or ConA, or 5 days with PWM or LPS. 1 μCi of tritiated thymidine was added to each well for the last 6 hours (or 0.5 μCi for 18 hrs). The cells were harvested in a cell Harvester (Tortech®) and counted in a Beta counter.

The next assay concerns B cells. Description: Activation of B cells by mitogenic proliferation (LPS, PWM). The format is cell-based, C57BL/6 mice.
Excerpt: as §1, §2, §3
PWM=0.2 to 0.02% final concentration
as §4

The subject of the next assay is P815 target cells. The assay can be described thus: Cytotoxic T lymphocytes (CTL) assay, 51Cr release, after 5 days mixed culture with drug. The format is cell-based, C57BL/6 mice. The text has this: (§5) 1. Cytotoxic T Lymphocytes (CTL) Mixed Lymphocyte Reaction (MLR) and Mitogenic Response Assays
(§6) The protocols used are described in Hudson L., Haay F., Pratical immunology, 3rd edition, Blackwell, Scientific publications, Oxford 1989, p. 158-162, and p.447.
(§7) Lymphocytes were isolated from C57BL/6 mice and DBA/2 mice in accordance to techniques well known in the art. Cell concentration was adjusted to 10×10^6 cell/ml for each assay. The cells isolated from DBA/2 mice were irradiated with 3000 Rads.
(§8) In a 6 well plate, each well was set up with:
(§9) The cells were incubated for five days at 37° C. in 5% CO2, after which CTL and MLR assays were performed.
a) Cytotoxic T Lymphocytes (CTL)
P815 target cells were labelled with Cr^51 (0.1 mCi). After labelling, the cells were washed three times and resuspended to a concentration of 5×10^4 cells/ml in media. p T cells were then counted and diluted to obtain a concentration of 2.5×10^6 cells/ml, and then further diluted to obtain the following effector:target ratios:
100 μl of target cells+100 μl of CTLs were incubated for 4 hours. In parallel wells, 100 μl of target cells+100 μl of media were incubated for spntaneous release. After incubation, cells were centrifuged and 100 μl of supernatant was then counted using a gamma counter.
Results are expressed as % specific ^51 Cr release= [formula] where ER=experimental release, SR=spontaneous releaase, and
0 represents less than 20%, + represents 20-40%, ++ represents 40-60%, +++ represent 60-80%, and ++++ represents 80% and over.

Assay [1] concerns C57BL/6 lymphocytes with irradiated DBA/2 cells. The assay can be described thus: Mixed lymphocyte reaction (MLR), 3H thymidine uptake. It counts as cell-based, mice.
Excerpt: as §5, §6, §7, §8, §9
b) Mixed Lymphocyte Reaction (MLR)
Mixed lymphocyte reaction is an in vitro counterpart of the allograft rejection. Briefly, lymphocyte activation (mitotic response) is obtained when cells from two inbred strains or from two outbred individuals of any species are mixed in in vitro culture. To have a unidirectional response, the proliferation of either cell type may be blocked with X-ray irradiation or mitomycin C treatment. After 4 days incubation, ^3 H thymidine uptake and cytotoxicity assays (CTL) were performed. The cells were then resuspended and 100 μl of cell suspension was deposited in each well of a 96 well plate. 1 μCi of tritiated thymidine was added for 6 hours. After incubation, the cells were then harvested and counted using a Microbeta counter.

Setting [2] is: concentration not given, 0 not defined.

Where a SMILES comes first, the peptide text is derived from it. [ ]: non-standard residue; d: D form.

For `NCC(=O)N[C@@H](CC(N)=O)C(=O)N1CCC[C@H]1C(=O)N[C@@H](Cc1ccc(O)cc1)C(=O)O` [PEPTIDE #8, H-Gly-Asn-Pro-Tyr-OH] (H-GNPY-OH), in the assay on T cells (setting [2]), the “Activation of T Cells, ConA” value amounted to 0 and the “Activation of T Cells, PHA” value came out at 0. Also, in the assay on B cells (setting [2]), the “Activation of B Cells, LPS” value came to 0 and the “Activation of B Cells, PWM” value turned out to be 0.
Consider `NCCCC[C@H](N)C(=O)N[C@@H](CC(N)=O)C(=O)NCC(=O)N[C@@H](Cc1ccc(O)cc1)C(=O)O` [PEPTIDE #2, H-Lys-Asn-Gly-Tyr-OH] (H-KNGY-OH), for which the “CTL, % augmentation compared to IL-2 (IL-2 is 100%)” value (from here on “CTL, % augmentation”) with P815 target cells (10^-9 M) was “++++ (++++ represents 80% and over)”. Moreover, the MLR in assay [1] (10^-9 M) amounted to 1.8 ×. Further, the “Activation of T Cells, ConA” value in the assay with T cells (10^-12 M - 10^-10 M) was determined as 1.3 ×. Further, the “Activation of T Cells, PHA” value in the assay on T cells (setting [2]) stood at 0. Moreover, the “stimulation of T cells in vitro (in words)” value with T cells (summary of Table 1) is “stimulates T cells to a moderate extent”. Besides, in the assay with B cells (10^-8 - 10^-5 M), the “Activation of B Cells, LPS” value is recorded as 1.8 - 3.5 × and the “Activation of B Cells, PWM” value is on record as 1.4 - 4.5 ×. Also, the “stimulation of B cells in vitro (in words)” value in the assay on B cells (summary of Table 1) is “stimulates B cells”.
For `NCCCC[C@H](N)C(=O)N[C@@H](CC(N)=O)C(=O)N1CCC[C@H]1C(=O)N[C@@H](Cc1ccccc1)C(=O)O` [PEPTIDE #4, H-Lys-Asn-Pro-Phe-OH] (H-KNPF-OH), the “CTL, % augmentation” value with P815 target cells (concentration not given) is listed as 0 (0 represents less than 20%). The same molecule had an MLR in assay [1] (setting [2]) of 0. Also, in the assay on T cells (setting [2]), the “Activation of T Cells, ConA” value was found to be 0 and the “Activation of T Cells, PHA” value is given as 0. Moreover, in the assay on B cells (setting [2]), the “Activation of B Cells, LPS” value is recorded as 0 and the “Activation of B Cells, PWM” value came out at 0.
Regarding `NCCCC[C@H](N)C(=O)N[C@@H](CC(N)=O)C(=O)N1CCC[C@@H]1C(=O)N[C@@H](Cc1ccc(O)cc1)C(=O)O` [PEPTIDE #3, H-Lys-Asn-(D-Pro)-Tyr-OH] (H-KN[dP]Y-OH), in the assay on P815 target cells (10^-9 M), the “CTL, % augmentation” value was “++ (++ represents 40-60%)”. Also, the “stimulation of CTL in vitro (in words)” value in the assay with P815 target cells (summary of Table 1) was “stimulate CTL”. For the same molecule, the MLR in assay [1] (setting [2]) is given as 0. Further, in the assay on T cells (setting [2]), the “Activation of T Cells, ConA” value was determined as 0 and the “Activation of T Cells, PHA” value was 0. Moreover, in the assay on B cells (setting [2]), the “Activation of B Cells, LPS” value came out at 0 and the “Activation of B Cells, PWM” value stood at 0.
Take `NCCCC[C@H](N)C(=O)N[C@@H](CCC(N)=O)C(=O)N1CCC[C@H]1C(=O)N[C@@H](Cc1ccc(O)cc1)C(=O)O` [PEPTIDE #6, H-Lys-Gln-Pro-Tyr-OH] (H-KQPY-OH): the “CTL, % augmentation” value in the assay on P815 target cells (concentration not given) is 0 (0 represents less than 20%). In assay [1] (setting [2]), the MLR was 0. In addition, in the assay with T cells (setting [2]), the “Activation of T Cells, ConA” value was 0 and the “Activation of T Cells, PHA” value was determined as 0. In the assay on B cells (setting [2]), the “Activation of B Cells, LPS” value is 0 and the “Activation of B Cells, PWM” value is recorded as 0.
